The text below walks through data of patent publication US8697151B2, “Use of an extract from the vigna aconitifolia plant in a cosmetic and/or dermopharmaceutical composition” (BASF Beauty Care Solutions France S.A.S., priority 2001, dated 2014).

The subject of this assay is epidermal cell renewal. Nature of the assay: Epidermal cell renewal in vivo by the dihydroxyacetone test (DHA test). The settings on record: for Development of luminescence (D15-D9) / Luminescence (AU) at D 15: 12 volunteers; for Luminescence (AU) at D 15: D15, 6 days after removal of the plasters, 3 mg/cm^2 daily; for Development of luminescence (D15-D9) % referring to control area: Wilcoxon T Test not significant. Details: species or system human. The procedure: Comparative in vivo tests were conducted to determine the accelerated epidermal cell renewal activity using 5 emulsions containing 0.2% by weight or 0.5% by weight vitamin A palmitate, 3% by weight or 5% by weight VITOPTINE® (extract of Vigna aconitifolia, Lab. Sero., Pulnoy) versus placebo.
Phase A and phase B were heated to 75° C. The aqueous phase was added to the fatty phase with continuous stirring and cooled to 60° C. by continued stirring. The combined phases were then homogenized for 2 mins. with an Ultraturrax. Finally, the active component is added with stirring and the whole is cooled to room temperature.
The study was carried out as a double blind study involving 12 female volunteers aged between 18 and 55 years.
The measurement parameter was the intensity of tanning of the skin after pigmenting with dihydroxyacetone. The decreasing tanning intensity corresponds to an increase in the renewal of the stratum corneum and the rate of the epidermal cell renewal cycle.
Eight areas (two groups of four) on the inside of the lower forearm were selected: • control area untreated and unpigmented by DHA, • area treated with placebo cream, • area treated with cream containing vitamin A palmitate • area treated with cream containing VITOPTINE®.
A standardized and randomized pretreatment with 3 mg/cm^2 of a preparation was carried out daily for 7 days. After the pretreatment, on day 8, DHA in the form of a face and body tanning lotion containing 5% by weight DHA was applied to the control and treated areas by an occlusive standardized process. On day 9, the occlusive plasters were removed. This was followed for another 6 days (days 10 to 15) by the same treatment as on days 1 to 7. The color intensity of the skin was determined immediately after removal of the plasters and 6 days later by colorimetric measurements (Minolta chromameter) via luminescence.
The first calculation (D15-D9) allowed evaluation of the development between day 9 (removal of the occlusive plasters) and day 15 (6 days after removal of the occlusive plasters). This development is representative of the epidermal cell renewal cycle. The greater the value, the higher the epidermal cell renewal.

With `CCCCCCCCCCCCCCCC(=O)OC/C=C(C)/C=C/C=C(C)/C=C/C1=C(C)CCCC1(C)C` [vitamin A palmitate], for the setting “cream containing 0.2%”, the “Development of luminescence (D15-D9)” value is 3.53, the “Luminescence (AU) at D 15” value stood at 62.18 AU and the “Development of luminescence (D15-D9) % referring to control area” value is 32 (ns) %. In addition, under “cream containing 0.5%”, the “Development of luminescence (D15-D9)” value is on record as 3.79, the “Luminescence (AU) at D 15” value was 62.44 AU and the “Development of luminescence (D15-D9) % referring to control area” value is 41 (ns) %.
